Reference: ChEMBL document CHEMBL5046255, “Design and synthesis of dual inhibitors targeting snail and histone deacetylase for the treatment of solid tumour cancer” (Eur J Med Chem, 2022)
The source made the active and inactive calls. The rule behind the calls is not given here.

Tests used:
MOLT-4 = experiment: Antiproliferative activity against human MOLT-4 cells assessed as growth inhibition incubated for 72 hrs by luminescence assay; assay type: functional
UO-31 = experiment: Antiproliferative activity against human UO-31 cells assessed as growth inhibition incubated for 72 hrs by luminescence assay; assay type: functional
HOP-92 = experiment: Antiproliferative activity against human HOP-92 cells assessed as growth inhibition incubated for 72 hrs by luminescence assay; assay type: functional
DU-145 = experiment: Antiproliferative activity against human DU-145 cells assessed as growth inhibition incubated for 72 hrs by luminescence assay; assay type: functional
[1] = AUC (0 to t) in Sprague-Dawley rat at 1 mg/kg, iv measured up to 24 hrs by LC-MS/MS analysis; assay type: ADME, organism-based; set-up: route intravenous, dose 1 mg/kg, time <=24; conditions: in vivo
NCI-H460 = experiment: Antiproliferative activity against human NCI-H460 cells assessed as growth inhibition incubated for 72 hrs by luminescence assay; assay type: functional
OVCAR-8 = experiment: Antiproliferative activity against human OVCAR-8 cells assessed as growth inhibition incubated for 72 hrs by luminescence assay; assay type: functional
SK-MEL-5 = experiment: Antiproliferative activity against human SK-MEL-5 cells assessed as growth inhibition incubated for 72 hrs by luminescence assay; assay type: functional
BT-549 = experiment: Antiproliferative activity against human BT-549 cells assessed as growth inhibition incubated for 72 hrs by luminescence assay; assay type: functional
SF-539 = experiment: Antiproliferative activity against human SF-539 cells assessed as growth inhibition incubated for 72 hrs by luminescence assay; assay type: functional
HL-60 = experiment: Antiproliferative activity against human HL-60 cells assessed as growth inhibition incubated for 72 hrs by luminescence assay; assay type: functional
[2] = Tmax in Sprague-Dawley rat at 10 mg/kg, po measured up to 24 hrs by LC-MS/MS analysis; assay type: ADME, organism-based; conditions: in vivo
NCI-H322M = experiment: Antiproliferative activity against human NCI-H322M cells assessed as growth inhibition incubated for 72 hrs by luminescence assay; assay type: functional
OVCAR-4 = experiment: Antiproliferative activity against human OVCAR-4 cells assessed as growth inhibition incubated for 72 hrs by luminescence assay; assay type: functional
M14 = experiment: Antiproliferative activity against human M14 cells assessed as growth inhibition incubated for 72 hrs by luminescence assay; assay type: functional
Malme-3M = experiment: Antiproliferative activity against human Malme-3M cells assessed as growth inhibition incubated for 72 hrs by luminescence assay; assay type: functional
NCI-H23 = experiment: Antiproliferative activity against human NCI-H23 cells assessed as growth inhibition incubated for 72 hrs by luminescence assay; assay type: functional
SNB-19 = experiment: Antiproliferative activity against human SNB-19 cells assessed as growth inhibition incubated for 72 hrs by luminescence assay; assay type: functional
UACC-257 = experiment: Antiproliferative activity against human UACC-257 cells assessed as growth inhibition incubated for 72 hrs by luminescence assay; assay type: functional
[3] = Metabolic stability in human liver microsomes assessed as half life incubated for 10 mins by LC-MS/MS analysis; assay type: ADME, Microsome
HOP-62 = experiment: Antiproliferative activity against human HOP-62 cells assessed as growth inhibition incubated for 72 hrs by luminescence assay; assay type: functional
SR = experiment: Antiproliferative activity against human SR cells assessed as growth inhibition incubated for 72 hrs by luminescence assay; assay type: functional
RPMI-8226 = experiment: Antiproliferative activity against human RPMI-8226 cells assessed as growth inhibition incubated for 72 hrs by luminescence assay; assay type: functional
[4] = Metabolic stability in dog plasma assessed as half life at 100 uM measured upto 120 mins by LC-MS/MS analysis; assay type: ADME, cell-free, Canis lupus familiaris
SW-620 = experiment: Antiproliferative activity against human SW-620 cells assessed as growth inhibition incubated for 72 hrs by luminescence assay; assay type: functional
LOX IMVI = experiment: Antiproliferative activity against human LOX IMVI cells assessed as growth inhibition incubated for 72 hrs by luminescence assay; assay type: functional
K562 = experiment: Antiproliferative activity against human K562 cells assessed as growth inhibition incubated for 72 hrs by luminescence assay; assay type: functional
[5] = Metabolic stability in human plasma assessed as parent compound remaining at 100 uM measured after 2 hrs by LC-MS/MS analysis; assay type: ADME, cell-free; conditions: read-out: Stability
HT-29 = experiment: Antiproliferative activity against human HT-29 cells assessed as growth inhibition incubated for 72 hrs by luminescence assay; assay type: functional
SF-268 = experiment: Antiproliferative activity against human SF-268 cells assessed as growth inhibition incubated for 72 hrs by luminescence assay; assay type: functional
RXF 393 = experiment: Antiproliferative activity against human RXF 393 cells assessed as growth inhibition incubated for 72 hrs by luminescence assay; assay type: functional
COLO 205 = experiment: Antiproliferative activity against human COLO 205 cells assessed as growth inhibition incubated for 72 hrs by luminescence assay; assay type: functional
[6] = Clearance in Sprague-Dawley rat at 1 mg/kg, iv measured up to 24 hrs by LC-MS/MS analysis; assay type: ADME, organism-based; conditions: in vivo
SK-OV-3 = experiment: Antiproliferative activity against human SK-OV-3 cells assessed as growth inhibition incubated for 72 hrs by luminescence assay; assay type: functional
T47D = experiment: Antiproliferative activity against human T47D cells assessed as growth inhibition incubated for 72 hrs by luminescence assay; assay type: functional
[7] = Metabolic stability in monkey liver microsomes assessed as intrinsic clearance incubated for 10 mins by LC-MS/MS analysis; assay type: ADME, Macaca mulatta, Microsome; conditions: rhesus monkey, read-out: CLH
HCC 2998 = experiment: Antiproliferative activity against human HCC 2998 cells assessed as growth inhibition incubated for 72 hrs by luminescence assay; assay type: functional
Hs-578T = experiment: Antiproliferative activity against human Hs-578T cells assessed as growth inhibition incubated for 72 hrs by luminescence assay; assay type: functional
786-0 = experiment: Antiproliferative activity against human 786-0 cells assessed as growth inhibition incubated for 72 hrs by luminescence assay; assay type: functional
[8] = AUC (0 to t) in Sprague-Dawley rat at 10 mg/kg, po measured up to 24 hrs by LC-MS/MS analysis; assay type: ADME, organism-based; set-up: route oral, dose 10 mg/kg, time <=24; conditions: in vivo
[9] = target: Histone deacetylase (Homo sapiens) (UniProt Q13547+O15379+Q9UBN7+Q92769+Q9UQL6+Q8WUI4+Q9BY41+Q96DB2+P56524+Q9UKV0+Q969S8); experiment: Inhibition of HDAC in human HCT-116 cells assessed as increase in Ac-H4 expression at 50 nM measured after 24 hrs by western blot analysis; assay type: cell-based
PC-3 = experiment: Antiproliferative activity against human PC-3 cells assessed as growth inhibition incubated for 72 hrs by luminescence assay; assay type: functional
ACHN = experiment: Antiproliferative activity against human ACHN cells assessed as growth inhibition incubated for 72 hrs by luminescence assay; assay type: functional
A498 = experiment: Antiproliferative activity against human A498 cells assessed as growth inhibition incubated for 72 hrs by luminescence assay; assay type: functional
HCT-116 = experiment: Antiproliferative activity against human HCT-116 cells assessed as cell viability at 1 uM incubated for 72 hrs by luminescence assay; assay type: functional, cell-based; conditions: HCT-116, 72 h
MCF7 = experiment: Antiproliferative activity against human MCF7 cells assessed as growth inhibition incubated for 72 hrs by luminescence assay; assay type: functional

What does the source list for Cc1cc(Nc2nc(SCc3ccc(C(=O)Nc4ccc(F)cc4N)cc3)nn3cccc23)n[nH]1?
GI50 (MOLT-4): 508 nM; GI50 (UO-31): 1330 nM; GI50 (HOP-92): 3680 nM; GI50 (DU-145): 461 nM; AUCt [1]: 715 ng·h/mL; GI50 (NCI-H460): 395 nM; GI50 (OVCAR-8): 483 nM; GI50 (SK-MEL-5): 334 nM; GI50 (BT-549): 296 nM; GI50 (SF-539): 282 nM; GI50 (HL-60): 268 nM; Tmax [2]: 4 h; GI50 (NCI-H322M): 1010 nM; GI50 (OVCAR-4): 1660 nM; GI50 (M14): 289 nM; GI50 (Malme-3M): 1830 nM; GI50 (NCI-H23): 603 nM; GI50 (SNB-19): 536 nM; GI50 (UACC-257): 3690 nM; half-life [3]: 1.1 h; GI50 (HOP-62): 556 nM; GI50 (SR): 68 nM; GI50 (RPMI-8226): 514 nM; half-life at 100 µM [4]: 7.15 h; GI50 (SW-620): 426 nM; GI50 (LOX IMVI): 665 nM; GI50 (K562): 48.7 nM; remaining at 2 h, 100 µM [5]: 79.1%; GI50 (HT-29): 322 nM; GI50 (SF-268): 1120 nM; GI50 (RXF 393): 301 nM; GI50 (COLO 205): 296 nM; clearance [6]: 24.2 mL/min/kg; GI50 (SK-OV-3): 339 nM; GI50 (T47D): 1120 nM; microsomal CLint [7]: 50.3 µL/min/mg; GI50 (HCC 2998): 677 nM; GI50 (Hs-578T): 429 nM; GI50 (786-0): 466 nM; AUCt [8]: 52.1 ng·h/mL; Activity [9]: Active; GI50 (PC-3): 355 nM; GI50 (ACHN): 1240 nM; GI50 (A498): 623 nM; IC50 (HCT-116): 75.1 nM; GI50 (MCF7): 51.8 nM
